Series [1] deals with human MM cell lines (mesothelioma cells). In words: Combination treatment, MTS cell proliferation assay, MM (mesothelioma) cell lines. The class given is cell-based. The note with it: 72 hours, Combination Index, FIG. 13. The source says: (§1) Another assay for determining the number of viable cells in proliferation or cytotoxicity assays is the MTS assay, a colorimetric method. MTS assay reagents are commercially available (Promega Corp., Madison, Wis.). The reagent contains a tetrazolium compound [3-(4,5-dimethylthiazol-2-yl)-5-(3-carboxymethoxyphenyl)-2-(4-sulfophenyl)-2H-tetrazolium, inner salt; MTS] and an electron coupling reagent (phenazine ethosulfate; PES). PES has enhanced chemical stability, which allows it to be combined with MTS to form a stable solution. The MTS tetrazolium compound (Owen's reagent) is bioreduced by cells into a colored formazan product that is soluble in tissue culture medium. This conversion may be accomplished by NADPH or NADH produced by dehydrogenase enzymes in metabolically active cells. The quantity of formazan product as measured by the absorbance at 490 nm is directly proportional to the number of living cells in culture. Because the MTS formazan product is soluble in tissue culture medium, this assay requires fewer steps than procedures that use tetrazolium compounds such as MTT. The formazan product of MTT reduction is a crystalline precipitate that requires an additional step in the procedure to dissolve the crystals before recording absorbance readings at 570 nm.
(§2) Combination treatments of the Compounds with several chemotherapies: erlotinib (Tarceva®), PI3K inhibitor LY294002, TGFβ inhibitor SB431542, and pemetrexed (Alimta®) were performed in human NSCLC and MM cell lines (FIGS. 12-17). In all experiments, NSCLC and MM cell lines were treated with different doses of each compound or combination for 72 hours, and MTS assays were performed to determine the cell proliferations. Combination Index (CI), calculated by CalcuSyn software (Biosoft, Cambridge, UK), was applied to describe the effect of the combination effects of two compounds, where CI<1 indicates Synergism, CI=1 indicates Additive effects, and CI>1 indicates Antagonism. Student's t-tests were applied for statistical analysis.
A general note: Formazan colour is commonly taken as a measure of viable cells.

Series [2] relates to human NSCLC cell lines. In words: Combination treatment, MTS cell proliferation assay, NSCLC cell lines. The format is cell-based. The note with it: lung cancer cells, 72 hours, Combination Index, FIG. 12.
Source text: as §1, §2

A short description of series [3]: Additional toxicity study: body weight at different doses. The class given is in vivo, mouse. The conditions noted are these: mice, i.p. 25, 50 and 100 mg/kg for 6 consecutive days, FIG. 7. The method, then:
Each dosing group contained 3 mice. The body weight of mice was measured using a scale. Results are the means±SD (error bars).
As preliminary in vivo toxicity study of Compounds 1, 2, 4, and 6, it was examined if there were changes of leukocyte population and loss of body weight in the mice after the treatment. At the completion of the in vivo studies as described herein, leukocytes (WBC: white blood cell, NE: neutrophil, LY: lymphocyte, MO: monocyte, EO: eosinophil, BA: basophil) from each animal from all treatment groups were collected and leukocyte population was counted through a blood cell counter. Body weights of control groups (n=10) and the treated group (n=10) were measured using a scale during the course of drug administration. […] In an additional toxicity study, effect of different doses of compounds 4 and 6 on the body weight of mice was examined. The compounds were i.p. injected in the abdomens at 3 different doses: 25, 50, and 100 mg/kg body weight to mice (3 mice per dosing group) for 6 consecutive days.

The subject of series [4] is Wnt signaling pathway. In words: Quantitative real-time RT-PCR of Wnt pathway genes in xenograft tumors. The note with it: Melanoma tumor xenograft, compared to controls, FIG. 4. The format is in vivo, mouse. The protocol: Total RNA was isolated using Qiagen RNeasy Mini Kit (Valencia, Calif.). Hybridization probes and primers (Table 1) were purchased from Applied Biosystems (ABI, Foster City, Calif.). cDNA synthesis and Taqman® PCR were performed according to the manufactures' protocols. The gene expression was assayed in triplicate in ABI 7300 Real-time PCR System. Samples were normalized to their housekeeping gene GAPDH and then calculated by using 2^−dCt method.
To examine whether Compounds 1, 2, 4, and 6 suppressed tumor growth through inhibition of the Wnt signaling pathway in vivo, expression of the key components and direct target genes of the Wnt pathway (e.g. Wnt2, Axin2, EGFR, and Cyclin D1) were analyzed by quantitative real-time RT-PCR using total RNA isolated from the xenograft tumors. GAPDH served as a control. This RT-PCR analysis was performed using a “pooled” tumor from two randomly selected mice of each group with reasonable size tumors. […] The results are shown in FIG. 4, where C is control and V is vehicle.
(In general: Quantitative PCR measures a nucleic acid by following its amplification.)

Series [5] concerns mesothelioma MS-1. The series is described as follows: In vivo efficacy, Mouse Xenograft Model (mesothelioma MS-1). The note with it: MS-1 xenograft, 50 mg/kg i.p. daily for 14 days, vs control group, FIG. 2. The method, then:
The administered compounds were tested in vivo in the mouse xenograft model bearing human cancer cells. Briefly, female athymic nude mice strain NCRNU-M (5-10 weeks old, 20-25 grams in weight; Taconic, Germantown, N.Y.) was maintained in pathogen-free conditions. Three human cancer cell lines: NSCLC A549, melanoma MelJuso, and mesothelioma MS-1 were used. Five or ten mice were used in each group and injected s.c. with 3×10^6 cancer cells in the dorsal area in a volume of 100 μl. After inoculation, human cancer cells were allowed to grow in mice for 10-13 days to become visible tumor nodules. Animals were then injected with a compound of the embodiments at a dose of 50 mg/kg body weight (1 mg/mouse per day). Vehicle alone was used as control. The compounds and controls were adjusted in 40 ul volume for i.p. injection in the abdomens of the mice. Injections were performed daily around the same time for 14 days. Tumors were allowed to grow for 1-2 additional weeks after completion of the compound treatments. Tumor size was measured every three to four days, and tumor volumes were calculated using width (x) and length (y) (x^2y/2, where x<y). Throughout this period, general toxicity of the treatments was also monitored by measuring body weight of the mice. […]
Model (Mesothelioma MS-1). […] Tumor sizes was measured twice weekly until the completion of the experiments. […]

As to `CCCC1C(C(=O)NCCCC(C)(C)CO)C(c2ccc(F)cc2)=NN1c1ccccc1` (centres unmarked) [Compound 4, 3-(4-fluoro-phenyl)-1-phenyl-5-propyl-4,5-dihydro-1H-pyrazole-4-carboxylic acid (5-hydroxy-4,4-dimethyl-pentyl)-amide], the “Combination effect with erlotinib (Tarceva)” value in series [1] and in series [2] was “synergy” in each case. Moreover, the “Loss of body weight” value in series [3] is “no noticeable loss”. Further, the “Expression of the key indicator of canonical Wnt activation in tumor” value in series [4] is recorded as “significantly down-regulated”. In addition, the “Tumor weight after treatment” value in series [5] is listed as “significantly decreased”.

The values above are taken from patent publication US9370521B2, “Targeting GLI proteins in human cancer by small molecules” (The Regents of the University of California, priority 2011, dated 2016).
